For this experiment, the system named is HEK cells. The experiment is described as follows: Speed of optical response to voltage steps in HEK cells. It counts as cell-based, human. As to conditions: 100 mV step from holding potential −60 mV. The text has this: Membrane voltage of cells loaded with VF1.4.Cl or VF2.4.Cl were controlled by making tight-seal whole-cell recordings. Cells were maintained at a holding potential of −60 mV and stepped for 50 ms to various depolarizing and hyperpolarizing potentials (FIG. 5A), while simultaneously acquiring epifluorescence images. For both sensors, depolarizing steps result in fluorescence increases while hyperpolarizing steps decrease fluorescence intensity, in keeping with our proposed mechanism. […] For di-4-ANEPPS, typical values are 0.08-0.12% per mV. […] To assess the speed of the optical response to voltage, VF2.4.Cl signals were monitored in response to voltage steps of 100 mV from a holding potential of −60 mV.
We characterized the voltage sensitivity of all three indicators by making tight-seal whole-cell recordings of HEK293 cells stained with the VF sensors. […] For all three dyes, depolarizing steps produced fluorescence increases, whereas hyperpolarizing steps produced fluorescence decreases, in keeping with the proposed PeT mechanism. The fluorescence response is linear over the range of −100 mV to +100 mV (FIG. 9C), with voltage sensitivities ΔF/F per 100 mV of 20±1% for VF1.4.Cl and 25±1% for VF2.4.Cl. […]

Consider 1 molecule from patent US11187660B2, “Fluorescent probes for monitoring voltage by photo-induced electron transfer” (The Regents of the University of California, priority 2011, dated 2021).

Regarding `CCCCN(CCCC)c1ccc(/C=C/c2ccc(/C=C/c3ccc(-c4c5cc(Cl)c(=O)cc-5oc5cc(O)c(Cl)cc45)c(S(=O)(=O)O)c3)cc2)cc1` [VF2.4.Cl, 5-(4-(4-(dibutylamino)styryl)styryl)-2-(2,7-dichloro-6-hydroxy-3-oxo-3H-xanthen-9-yl)benzenesulfonic acid], the “τoff, optical” value came to 147±19 μs and the “τon, optical” value was 138±14 μs.
